# Data reported in patent US20250179502A1, “TARGETING NEUROPILIN 2 (NRP2) IN LETHAL PROSTATE CANCER” (UNIVERSITY OF MASSACHUSETTS, priority 2022, published 2025).
# Numbered stars: 1 amine (or outer) side, 2 acyl side, 3 side chain; on linkers, the order of the positions; unused ones are H or OH. Bridge positions count the residues as written; N and C are the ends. Square brackets hold non-standard residues; d marks the D form. Peptide text beside a SMILES is read from it. I, II: the chains in the order shown. Actinocin(9to1) = Cc1c2oc3c(C)ccc(C(=O)[*:1])c3nc-2c(C(=O)[*:2])c(N)c1=O; NMeV = CN[C@H](C(=O)O)C(C)C; Sar = CNCC(=O)O
# Assays:
# Nrp2-b1b2 = target: T1, Nrp2-b1b2 (Homo sapiens, UniProt O60462); settings: cited from earlier work
# T1 sequence (O60462 276-595 limits assumed): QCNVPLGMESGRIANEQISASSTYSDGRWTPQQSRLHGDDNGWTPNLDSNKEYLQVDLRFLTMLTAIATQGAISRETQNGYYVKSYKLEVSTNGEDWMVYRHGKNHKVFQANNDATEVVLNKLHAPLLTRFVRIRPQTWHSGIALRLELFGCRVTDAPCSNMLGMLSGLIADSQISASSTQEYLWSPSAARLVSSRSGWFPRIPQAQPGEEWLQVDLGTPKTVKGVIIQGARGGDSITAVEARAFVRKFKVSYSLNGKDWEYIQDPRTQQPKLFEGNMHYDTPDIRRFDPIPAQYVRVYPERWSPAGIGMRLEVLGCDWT
# PD-L1 mRNA in PC3 = assay: PD-L1 mRNA by qPCR in PC3 cells treated with YAP inhibitor; type: cell-based, human; settings: Verteporfin 2 μM for 24 hours versus DMSO
# Experimental: (D) Bar graphs show fold change of PD-L1/18S mRNA in PC3 treated with DMSO versus PC3 treated with YAP inhibitor (Verteporfin) from 3 independent experiments determined by qPCR.
# The following reagents were used: CellTrace™ Violet Cell Proliferation Kit (Thermo Fisher, C34571), eBioscience™ Fixable Viability Dye eFluor™ 780 (Invitrogen, 65-0865-14). Verteporfin was purchased from Tocris and used at a concentration of 2 μM for 24 hours.
# Real-time qPCR. RNA extraction was accomplished using an RNA isolation kit (BS88133, Bio Basic Inc.), and cDNAs were produced using a qScript cDNA syn-thesis kit (#95047, Quantabio). SYBR Green (Applied Biosystems) was used as the qPCR master mix. Experiments were performed in triplicate and normalized to 18S. qPCR primer sequences were obtained from the Massachusetts General Hospital/Harvard Medical School PrimerBank (pga.mgh. harvard.edu/primerbank/).
molecule,measurement,setting,value
Oc1cc2c(cc1O)[C@H]1c3ccccc3CN[C@@H]1CC2 (racemic) [Dihydrexidine],AP-VEGF-C/Nrp2-b1b2 binding,Nrp2-b1b2,inhibit
"Cc1c2oc3c(C)ccc(C(=O)N[C@@H]4C(=O)N[C@H](C(C)C)C(=O)N5CCC[C@H]5C(=O)N(C)CC(=O)N(C)[C@@H](C(C)C)C(=O)O[C@@H]4C)c3nc-2c(C(=O)N[C@@H]2C(=O)N[C@H](C(C)C)C(=O)N3CCC[C@H]3C(=O)N(C)CC(=O)N(C)[C@@H](C(C)C)C(=O)O[C@@H]2C)c(N)c1=O [Actinomycin D] (I: T[dV]P[Sar][NMeV] / II: T[dV]P[Sar][NMeV]; ester I:1-I:C, II:1-II:C; linker I:N-II:N via Actinocin(9to1))",AP-VEGF-C/Nrp2-b1b2 binding,Nrp2-b1b2,inhibit
COc1cc(C(=O)NS(=O)(=O)c2ccccc2C)ccc1Cc1cn(C)c2ccc(NC(=O)OC3CCCC3)cc12 [Zafirlukast],AP-VEGF-C/Nrp2-b1b2 binding,Nrp2-b1b2,inhibit
Verteporfin,PD-L1 mRNA level (PD-L1/18S),PD-L1 mRNA in PC3,significantly reduced
